Results reported in ChEMBL document CHEMBL4715696, “In vitro synergistic anticancer activity of the combination of T-type calcium channel blocker and chemotherapeutic agent in A549 cells” (Bioorg Med Chem Lett, 2016).

Target: T1, CYP1A2 (Homo sapiens, UniProt P05177)
T1 sequence (P05177 whole entry): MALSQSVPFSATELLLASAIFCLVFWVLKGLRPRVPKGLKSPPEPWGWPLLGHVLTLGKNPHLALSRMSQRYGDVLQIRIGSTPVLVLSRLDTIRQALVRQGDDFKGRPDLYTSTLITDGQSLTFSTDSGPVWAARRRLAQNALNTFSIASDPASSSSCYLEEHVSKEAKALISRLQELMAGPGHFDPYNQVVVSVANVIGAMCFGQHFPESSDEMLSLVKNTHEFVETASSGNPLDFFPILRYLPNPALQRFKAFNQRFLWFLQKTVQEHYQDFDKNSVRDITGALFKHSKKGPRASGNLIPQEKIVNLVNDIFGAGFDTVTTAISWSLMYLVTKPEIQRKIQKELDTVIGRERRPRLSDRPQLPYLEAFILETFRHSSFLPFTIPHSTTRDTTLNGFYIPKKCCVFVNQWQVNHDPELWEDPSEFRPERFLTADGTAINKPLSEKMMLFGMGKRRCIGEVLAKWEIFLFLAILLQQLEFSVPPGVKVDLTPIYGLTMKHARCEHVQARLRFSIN
Assay: Inhibition of human CYP1A2 assessed as residual activity at 10 uM measured after 15 mins relative to control
Assay type: ADME
Conditions: read-out: Activity

## CN(C)C(=O)NCCCN(C)C1=Nc2ccccc2C(CC(=O)NCc2ccc(F)cc2)N1c1ccc(C2CCCCC2)cc1 (stereo unspecified)
  activity at 0.25 h, 10 µM: 59.2%
